# Reference: ChEMBL document CHEMBL4118101 (Bioorg Med Chem, 2018)
# Activity calls are given as the source filed them. No cut-off for these calls is given here.
# Legend:
# Cryptococcus neoformans [1] = experiment: Antifungal activity against Cryptococcus neoformans isolate CN2 measured after 48 hrs by CLSI M27-A3 protocol based method; assay type: functional; conditions: Cryptococcus neoformans, isolate CN2, 48 h; read-out: MIC
# Candida albicans [2] = experiment: Antifungal activity against Candida albicans ATCC 10231 measured after 48 hrs by CLSI M27-A3 protocol based method; assay type: functional; conditions: ATCC 10231, 48 h
# Candida albicans [3] = experiment: Antifungal activity against Candida albicans ATCC 64124 measured after 48 hrs by CLSI M27-A3 protocol based method; assay type: functional; conditions: Candida albicans, ATCC 64124, 48 h; read-out: MIC
# Candida albicans [4] = experiment: Antifungal activity against fluconazole/ITC-susceptible Candida albicans ATCC MYA-2876 measured after 48 hrs by CLSI M27-A3 protocol based method; assay type: functional; conditions: Candida albicans, ATCC MYA-2876, 48 h
# Candida albicans [5] = experiment: Antifungal activity against fluconazole/ITC-resistant Candida albicans ATCC 90819 measured after 48 hrs by CLSI M27-A3 protocol based method; assay type: functional; conditions: Candida albicans, ATCC 90819, 48 h; read-out: MIC
# Candida albicans [6] = experiment: Antifungal activity against fluconazole/ITC-susceptible Candida albicans ATCC MYA-2310 measured after 48 hrs by CLSI M27-A3 protocol based method; assay type: functional; conditions: Candida albicans, ATCC MYA-2310, 48 h; read-out: MIC
# Candida albicans [7] = experiment: Antifungal activity against fluconazole/ITC-resistant Candida albicans ATCC MYA-1237 measured after 48 hrs by CLSI M27-A3 protocol based method; assay type: functional; conditions: Candida albicans, ATCC MYA-1237, 48 h; read-out: MIC
# Candida albicans [8] = experiment: Antifungal activity against fluconazole/ITC-resistant Candida albicans ATCC MYA-1003 measured after 48 hrs by CLSI M27-A3 protocol based method; assay type: functional; conditions: Candida albicans, ATCC MYA-1003, 48 h; read-out: MIC
# Nakaseomyces glabratus [9] = experiment: Antifungal activity against Candida glabrata ATCC 2001 measured after 48 hrs by CLSI M27-A3 protocol based method; assay type: functional, CBS 138; conditions: Nakaseomyces glabratus, CBS 138, 48 h; read-out: MIC
# Pichia kudriavzevii = experiment: Antifungal activity against Candida krusei ATCC 6258 measured after 48 hrs by CLSI M27-A3 protocol based method; assay type: functional; conditions: Pichia kudriavzevii, ATCC 6258, 48 h
# Candida parapsilosis [10] = experiment: Antifungal activity against Candida parapsilosis ATCC 22019 measured after 48 hrs by CLSI M27-A3 protocol based method; assay type: functional; conditions: Lodderomyces parapsilosis, ATCC 22019, 48 h
# Aspergillus nidulans = experiment: Antifungal activity against Aspergillus nidulans ATCC 38163 measured after 48 hrs by CLSI M38-A2 protocol based method; assay type: functional; conditions: ATCC 38163, 48 h
# Aspergillus flavus = experiment: Antifungal activity against Aspergillus flavus ATCC MYA-3631 measured after 48 hrs by CLSI M38-A2 protocol based method; assay type: functional; conditions: ATCC MYA-3631, 48 h
# Aspergillus terreus = experiment: Antifungal activity against Aspergillus terreus ATCC MYA-3633 measured after 48 hrs by CLSI M38-A2 protocol based method; assay type: functional; conditions: ATCC MYA-3633, 48 h
# Nakaseomyces glabratus [11] = experiment: Antifungal activity against Candida glabrata isolate CG1 measured after 48 hrs by CLSI M27-A3 protocol based method; assay type: functional; conditions: Nakaseomyces glabratus, 48 h; read-out: MIC
# Nakaseomyces glabratus [12] = experiment: Antifungal activity against Candida glabrata isolate CG2 measured after 48 hrs by CLSI M27-A3 protocol based method; assay type: functional; conditions: Nakaseomyces glabratus, isolate CG2, 48 h; read-out: MIC
# Nakaseomyces glabratus [13] = experiment: Antifungal activity against Candida glabrata isolate CG3 measured after 48 hrs by CLSI M27-A3 protocol based method; assay type: functional; conditions: Nakaseomyces glabratus, 48 h; read-out: MIC
# Candida parapsilosis [14] = experiment: Antifungal activity against Candida parapsilosis isolate CP1 measured after 48 hrs by CLSI M27-A3 protocol based method; assay type: functional; conditions: Lodderomyces parapsilosis, isolate CP1, 48 h
# Candida parapsilosis [15] = experiment: Antifungal activity against Candida parapsilosis isolate CP2 measured after 48 hrs by CLSI M27-A3 protocol based method; assay type: functional; conditions: Lodderomyces parapsilosis, isolate CP2, 48 h
# Cryptococcus neoformans [16] = experiment: Antifungal activity against Cryptococcus neoformans isolate CN1 measured after 48 hrs by CLSI M27-A3 protocol based method; assay type: functional; conditions: isolate CN1, 48 h
# Cryptococcus neoformans [17] = experiment: Antifungal activity against Cryptococcus neoformans isolate CN3 measured after 48 hrs by CLSI M27-A3 protocol based method; assay type: functional; conditions: Cryptococcus neoformans, isolate CN3, 48 h; read-out: MIC
# Candida parapsilosis [18] = experiment: Antifungal activity against Candida parapsilosis isolate CP3 measured after 48 hrs by CLSI M27-A3 protocol based method; assay type: functional; conditions: Lodderomyces parapsilosis, isolate CP3, 48 h
# Candida albicans [19] = experiment: Induction of membrane permeabilization in Candida albicans ATCC 10231 assessed as membrane disruption at 4 times MIC after 1 hr by propidium iodide staining based fluorescence microscopy; assay type: functional, organism-based
SMILES,MIC (Cryptococcus neoformans [1]),MIC (Candida albicans [2]),MIC (Candida albicans [3]),MIC (Candida albicans [4]),MIC (Candida albicans [5]),MIC (Candida albicans [6]),MIC (Candida albicans [7]),MIC (Candida albicans [8]),MIC (Nakaseomyces glabratus [9]),MIC (Pichia kudriavzevii),MIC (Candida parapsilosis [10]),MIC (Aspergillus nidulans),MIC (Aspergillus flavus),MIC (Aspergillus terreus),MIC (Nakaseomyces glabratus [11]),MIC (Nakaseomyces glabratus [12]),MIC (Nakaseomyces glabratus [13]),MIC (Candida parapsilosis [14]),MIC (Candida parapsilosis [15]),MIC (Cryptococcus neoformans [16]),further results
CCCCCCCCN(CCCCCCCC)CC(O)(Cn1cncn1)c1ccc(F)cc1F (configuration not stated),> 65.4 µM,65.4 µM,> 65.4 µM,65.4 µM,65.4 µM,> 65.4 µM,65.4 µM,> 65.4 µM,65.4 µM,65.4 µM,2 µM,32.7 µM,> 65.4 µM,> 65.4 µM,32.6 µM,16.3 µM,65.4 µM,2 µM,4.1 µM,> 65.4 µM,MIC (Cryptococcus neoformans [17]): > 65.4 µM; MIC (Candida parapsilosis [18]): 4.1 µM
CCCCCCN(CCCCCC)CC(O)(Cn1cncn1)c1ccc(F)cc1F (configuration not stated),> 74.1 µM,> 74.1 µM,> 74.1 µM,> 74.1 µM,> 74.1 µM,> 74.1 µM,> 74.1 µM,> 74.1 µM,> 74.1 µM,> 74.1 µM,74.1 µM,> 74.1 µM,> 74.1 µM,> 74.1 µM,> 74.1 µM,> 74.1 µM,> 74.1 µM,> 74.1 µM,> 74.1 µM,> 74.1 µM,MIC (Cryptococcus neoformans [17]): 37.1 µM; MIC (Candida parapsilosis [18]): > 74.1 µM
CC(C)c1ccc(NCC(O)(Cn2cncn2)c2ccc(F)cc2F)cc1 (configuration not stated),84 µM,> 84 µM,> 84 µM,> 84 µM,84 µM,84 µM,84 µM,84 µM,20.9 to 84 µM,> 84 µM,20.9 µM,20.9 µM,84 µM,41.9 µM,20.9 µM,20.9 µM,20.9 µM,10.5 µM,10.5 µM,20.9 µM,MIC (Cryptococcus neoformans [17]): > 84 µM; MIC (Candida parapsilosis [18]): 10.5 µM
CCCCCCNCC(O)(Cn1cncn1)c1ccc(F)cc1F (configuration not stated),> 92.3 µM,23 µM,> 92.3 µM,46.1 µM,92.3 µM,92.3 µM,> 92.3 µM,92.3 µM,23 to 46.1 µM,23 µM,2.9 µM,> 92.3 µM,> 92.3 µM,> 92.3 µM,92.3 µM,23 µM,92.3 µM,2.9 µM,2.9 µM,23 µM,MIC (Cryptococcus neoformans [17]): 92.3 µM; MIC (Candida parapsilosis [18]): 2.9 µM; Activity (Candida albicans [19]): inactive
CCCCCCCCCCCCCCSC[C@H]1O[C@H](O[C@H]2[C@H](O)[C@@H](O[C@H]3O[C@H](CO)[C@@H](O)[C@H](N)[C@H]3O)[C@H](N)C[C@@H]2N)[C@H](N)[C@@H](O)[C@@H]1O,–,–,–,–,–,–,–,–,–,–,–,–,–,–,–,–,–,–,–,–,Activity (Candida albicans [19]): Active
OCCCCCCNCC(O)(Cn1cncn1)c1ccc(F)cc1F (configuration not stated),> 88.3 µM,> 88.3 µM,> 88.3 µM,88.3 µM,88.3 µM,> 88.3 µM,> 88.3 µM,> 88.3 µM,> 88.3 µM,> 88.3 µM,> 88.3 µM,> 88.3 µM,> 88.3 µM,> 88.3 µM,> 88.3 µM,> 88.3 µM,> 88.3 µM,88.3 µM,88.3 µM,> 88.3 µM,MIC (Cryptococcus neoformans [17]): > 88.3 µM; MIC (Candida parapsilosis [18]): 88.3 µM
